{
  "source": "patent US7635719B2",
  "about": "“Use of adamatyl methoxydiphenyl propenoic acid for the treatment of acne” (Sigma-Tau Industrie Farmaceutiche Riunite S.p.A., priority 2005, dated 2009)",
  "key": {"[1]": {"system": "epidermal utriculi (comedones) of rhino mice", "test": "Comedolytic action of ST1898 (Formulation 2) on epidermal pseudocomedones in rhino mice", "format": "in vivo, rhino (RHJ/LeJ) mice", "procedure": "Formulations: ST1898 0.1 and 0.05% in the vehicle.\nVehicle: carbomer 980, propylene glycol, poloxamer, disodium edentate, methyl hydroxybenzoate, phenoxyethanol, sodium hydroxide and purified water).\nAdapalene (Differin Gel®) was used as reference compound (0.1%).\n(§1) 30 rhino (RHJ/LeJ) mice (Jackson Laboratory), 15 male and 15 female (6-8 weeks of age) were subdivided in 6 mice/group. Two groups were treated with ST1898 (Formulation 2) (0.1% and 0.05% in the vehicle), a group with adapalene (Differin® gel), used as reference compound (0.1%), a group with the vehicle (the same of the formulation of Differin® gel: carbomer 980, propylene glycol, poloxamer, disodium edentate, methyl hydroxybenzoate, phenoxyethanol, sodium hydroxide and purified water).\nA group was not treated (control). The drugs (50 μl) were applied with a sterile gloved finger topically on the dorsal skin (massage for 30-45 sec), once daily for 5 consecutive days/week (excluding Saturdays and Sundays) for 3 consecutive […]. Three days after the last application, mice were sacrificed by cervical dislocation. Two skin punch biopsies (6 mm) were taken immediately after death from all sacrificed animals. The biopsies were formalin-fixed (10% buffered formalin solution) and paraffin-embedded.\nQuantitative histological image analysis was evaluated as the total number of epidermal utriculi (comedones) per centimeter of stratum corneum length, the comedo profile, and the epidermal thickness. From one biopsy, three 3-μm thick skin sections were obtained at 150 μm intervals and were stained with hematoxylin-eosin. The second biopsy was kept stored for records.\nAssisted computer morphometric analysis of the stained skin sections was performed using a Zeiss KS300.3 system (parameters n. 1, 3 and 4). For total length of the stratum corneum measurement a micrometric equipment was used. The following microscopic parameters were measured:\n1) on each open epidermal utriculum/comedo the largest diameter or diameter taken at half depth (D) and diameter of the surface orifice (d),\n2) length of the three sections, taken as total length of the stratum corneum,\n3) total number of epidermal utriculi/comedones in the three sections,\n4) in interfollicular areas, surface (S) of the epidermis and length (L) of the corresponding basal layer.\n1) number of utriculi/(comedones)/length of stratum corneum (cm);\n2) Comedo profile, calculated as r=d/D,\n3) epidermal thickness, calculated as S/L in […]m.\nA topical application on the dorsal skin (massage for 30-45 sec) was performed of 50 μl applied with a gloved finger. The treatment was done once daily for 5 consecutive days/week (excluding Saturdays and Sundays) for 3 consecutive weeks. […]"}, "[2]": {"test": "Body weight of rhino mice treated with ST1898 (Formulation 2) or adapalene", "format": "in vivo, rhino (RHJ/LeJ) mice", "procedure": "as §1\nA topical application on the dorsal skin (massage for 30-45 sec) was performed of 50 μl applied with a gloved finger. The treatment was done once daily for 5 consecutive days/week (excluding Saturdays and Sundays) for 3 consecutive weeks.\nDuring the treatment, the body weight of mice was recorded to control the healthy status of mice. No significative variation in body weight was found (table 2).\nMice were sacrificed 3 days after the last treatment. The vehicle used for ST1898 (Formulation 2) was the same of Differin gel (carbomer 980, propylene glycol, poloxamer, disodium edentate, methyl hydroxybenzoate, phenoxyethanol, sodium hydroxide and purified water)."}},
  "data": [
    {"smiles": "COc1ccc(-c2ccc3cc(C(=O)O)ccc3c2)cc1C12CC3CC(CC(C3)C1)C2", "note": "[Adapalene, reference compound]", "values": [
      {"measurement": "Comedones (n/cm)", "setting": "[1]; 0.1% gel (Formulation 2 / Differin gel), topical 50 μl qdx5/wx3w, mean ± SD, untreated 57.35, vehicle 57.27", "value": "28.31 ± 2.92", "unit": "n/cm"},
      {"measurement": "Comedo profile (r = d/D)", "setting": "[1]; 0.1% gel, topical 50 μl qdx5/wx3w, mean ± SD, untreated 0.62, vehicle 0.61", "value": "1.24 ± 0.11"},
      {"measurement": "Epidermal thickness (μm)", "setting": "[1]; 0.1% gel, topical 50 μl qdx5/wx3w, mean ± SD, untreated 20.90, vehicle 20.56", "value": "57.33 ± 9.99", "unit": "μm"},
      {"measurement": "Histological analysis: interfollicular epidermis (in words)", "setting": "[1]; skin of treated rhino mice", "value": "hyperplasia of interfollicular epidermis"},
      {"measurement": "Initial body weight gr ± SE", "setting": "[2]; 0.1% group, before treatment", "value": "21.3 ± 1.1", "unit": "gr"},
      {"measurement": "Body weight loss max (%)", "setting": "[2]; 0.1% topical qdx5/wx3w", "value": 4, "unit": "%"},
      {"measurement": "Final body weight gr ± SE", "setting": "[2]; 0.1% topical qdx5/wx3w", "value": "21.2 ± 1.3", "unit": "gr"}
    ]}
  ]
}
